Assay results taken from patent publication US12187723B2 (BRISTOL-MYERS SQUIBB COMPANY, priority 2019, dated 2025).

biological target: T1, human TLR8 (Homo sapiens, UniProt Q9NR97); assay: TLR8 inhibition reporter assay (HEK-Blue SEAP); assay type: cell-based; settings: HEK-Blue cells overexpressing human TLR8, R848 15.9 μM, 22 hour incubation
T1 construct: host or cells: HEK-Blue cells
T1 sequence (Q9NR97 27-1041): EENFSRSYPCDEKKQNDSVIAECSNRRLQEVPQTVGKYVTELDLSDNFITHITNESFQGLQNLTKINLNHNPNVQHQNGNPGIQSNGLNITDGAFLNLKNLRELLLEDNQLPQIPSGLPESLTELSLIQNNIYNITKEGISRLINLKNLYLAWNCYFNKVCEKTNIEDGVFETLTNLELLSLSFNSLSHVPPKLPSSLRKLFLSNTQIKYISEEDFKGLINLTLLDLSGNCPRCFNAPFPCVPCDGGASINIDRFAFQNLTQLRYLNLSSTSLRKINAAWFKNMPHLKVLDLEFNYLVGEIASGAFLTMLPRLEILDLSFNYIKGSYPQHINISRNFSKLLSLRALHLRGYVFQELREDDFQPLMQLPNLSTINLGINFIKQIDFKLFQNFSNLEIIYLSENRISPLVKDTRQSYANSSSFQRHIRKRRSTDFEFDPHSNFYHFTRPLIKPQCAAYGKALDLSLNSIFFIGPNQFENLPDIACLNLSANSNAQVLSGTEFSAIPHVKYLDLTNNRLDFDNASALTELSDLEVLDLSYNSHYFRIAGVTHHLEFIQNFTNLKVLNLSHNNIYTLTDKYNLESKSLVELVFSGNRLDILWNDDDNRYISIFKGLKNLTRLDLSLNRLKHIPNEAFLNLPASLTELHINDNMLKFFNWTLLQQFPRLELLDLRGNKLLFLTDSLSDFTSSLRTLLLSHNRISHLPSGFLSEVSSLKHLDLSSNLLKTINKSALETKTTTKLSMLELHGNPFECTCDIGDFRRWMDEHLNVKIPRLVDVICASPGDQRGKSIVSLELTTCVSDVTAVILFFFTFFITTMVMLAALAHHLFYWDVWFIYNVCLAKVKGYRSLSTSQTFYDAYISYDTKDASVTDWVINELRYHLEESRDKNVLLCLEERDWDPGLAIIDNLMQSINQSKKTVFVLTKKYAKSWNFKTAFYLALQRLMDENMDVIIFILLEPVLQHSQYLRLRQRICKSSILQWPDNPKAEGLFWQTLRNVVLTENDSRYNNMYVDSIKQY
Summary of the method: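 Dose–response from 0.05 nM to 50 μM was run in HEK-Blue human TLR7, TLR8 and TLR9 reporter cells. After 30 min at room temperature with compound, ligand was added (TLR7 gardiquimod 7.5 μM; TLR8 R848 15.9 μM; TLR9 ODN2006 5 nM) and SEAP measured next day, at 22 h.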

In order of falling IC50:
1. Cc1cc(-c2ccc3c(c2)[nH]c(=O)n3C2CCNCC2)cn2ncnc12 [1 EB, 5-(8-methyl-[1,2,4]triazolo[1,5-a]pyridin-6-yl)-1-(piperidin-4-yl)-1,3-dihydro-2H-benzo[d]imidazol-2-one]  1030 nM
2. Cc1cc2c(cc1-c1cc(C)c3ncnn3c1)[nH]c(=O)n2C1CCNCC1 [1 EA, 6-methyl-5-(8-methyl-[1,2,4]triazolo[1,5-a]pyridin-6-yl)-1-(piperidin-4-yl)-1,3-dihydro-2H-benzo[d]imidazol-2-one]  439 nM
3. Cc1cc2c(cc1-c1cc(C)c3ncnn3c1)[nH]c(=O)n2[C@@H]1CCCN(CCC(F)(F)F)C1 [Example 29, (R)-6-methyl-5-(8-methyl-[1,2,4]triazolo[1,5-a]pyridin-6-yl)-1-(1-(3,3,3-trifluoropropyl)piperidin-3-yl)-1,3-dihydro-2H-benzo[d]imidazol-2-one]  49.5 nM
4. Cc1cc2c(cc1-c1cc(C)c3ncnn3c1)[nH]c(=O)n2[C@@H]1CCCNC1 [1 ED, (R)-6-methyl-5-(8-methyl-[1,2,4]triazolo[1,5-a]pyridin-6-yl)-1-(piperidin-3-yl)-1,3-dihydro-2H-benzo[d]imidazol-2-one]  38.1 nM
5. Cc1cc2c(cc1-c1cc(C)c3ncnn3c1)[nH]c(=O)n2[C@H]1CC[C@H](N)CC1 [1 EF, 1-((1r,4r)-4-aminocyclohexyl)-6-methyl-5-(8-methyl-[1,2,4]triazolo[1,5-a]pyridin-6-yl)-1,3-dihydro-2H-benzo[d]imidazol-2-one]  33.2 nM
6. COc1cc(-c2cc3[nH]c(=O)n([C@H]4CC[C@@H](N)CC4)c3cc2C)cn2ncnc12 [1 EG, 1-((1s,4s)-4-aminocyclohexyl)-5-(8-methoxy-[1,2,4]triazolo[1,5-a]pyridin-6-yl)-6-methyl-1,3-dihydro-2H-benzo[d]imidazol-2-one]  32.6 nM
7. COc1cc(-c2cc3[nH]c(=O)n([C@@H]4CCCNC4)c3cc2C(F)(F)F)cn2ncnc12 [110 F, (R)-5-(8-methoxy-[1,2,4]triazolo[1,5-a]pyridin-6-yl)-1-(piperidin-3-yl)-6-(trifluoromethyl)-1,3-dihydro-2H-benzo[d]imidazol-2-one]  14.8 nM
8. CCN(CC)[C@H]1CC[C@@H](n2c(=O)[nH]c3cc(-c4cc(C)c5ncnn5c4)c(C)cc32)CC1 [Example 20, 1-((1s,4s)-4-(diethylamino)cyclohexyl)-6-methyl-5-(8-methyl-[1,2,4]triazolo[1,5-a]pyridin-6-yl)-1,3-dihydro-2H-benzo[d]imidazol-2-one]  14.4 nM
9. CCN[C@H]1CC[C@@H](n2c(=O)[nH]c3cc(-c4cc(C)c5ncnn5c4)c(C)cc32)CC1 [Example 21, 1-((1s,4s)-4-(ethylamino)cyclohexyl)-6-methyl-5-(8-methyl-[1,2,4]triazolo[1,5-a]pyridin-6-yl)-1,3-dihydro-2H-benzo[d]imidazol-2-one]  13.3 nM
10. COc1cc(-c2cc3[nH]c(=O)n(C4CCC(N5CC6(C5)CS(=O)(=O)C6)CC4)c3cc2C(C)C)cn2ncnc12 (single isomer, unassigned) [Example 245, 1-(4-(2,2-dioxido-2-thia-6-azaspiro[3.3]heptan-6-yl)cyclohexyl)-6-isopropyl-5-(8-methoxy-[1,2,4]triazolo[1,5-a]pyridin-6-yl)-1,3-dihydro-2H-benzo[d]imidazol-2-one]  11.7 nM
11. COc1cc(-c2cc3[nH]c(=O)n(C4CCC(N5CC(F)(F)C5)CC4)c3cc2C(C)C)cn2ncnc12 (single isomer, unassigned) [Example 297]  8.4 nM
12. COc1cc(-c2cc3[nH]c(=O)n(C4CCC(N5C[C@@H](F)[C@@H](F)C5)CC4)c3cc2C(C)C)cn2ncnc12 (single isomer, unassigned) [Example 293]  7.74 nM
13. COc1c(C)c(-c2cc3[nH]c(=O)n(C4CCC(N5CC6(COC6)C5)CC4)c3cc2C(C)C)cn2ncnc12 (single isomer, unassigned) [Example 270, 1-(4-(2-oxa-6-azaspiro[3.3]heptan-6-yl)cyclohexyl)-6-isopropyl-5-(8-methoxy-7-methyl-[1,2,4]triazolo[1,5-a]pyridin-6-yl)-1,3-dihydro-2H-benzo[d]imidazol-2-one]  2.83 nM
14. Cc1c(-c2cc3[nH]c(=O)n(C4CCC(N5CC6(COC6)C5)CC4)c3cc2C(C)C)cn2ncnc2c1C (single isomer, unassigned) [Example 281, 1-(4-(2-oxa-6-azaspiro[3.3]heptan-6-yl)cyclohexyl)-5-(7,8-dimethyl-[1,2,4]triazolo[1,5-a]pyridin-6-yl)-6-isopropyl-1,3-dihydro-2H-benzo[d]imidazol-2-one]  2.67 nM
15. Cc1c(-c2cc3[nH]c(=O)n(C4CCC(N5CCC(F)(F)CC5)CC4)c3cc2C(C)C)cn2ncnc2c1C (single isomer, unassigned) [Example 276, 1-(4-(4,4-difluoropiperidin-1-yl)cyclohexyl)-5-(7,8-dimethyl-[1,2,4]triazolo[1,5-a]pyridin-6-yl)-6-isopropyl-1,3-dihydro-2H-benzo[d]imidazol-2-one]  1.92 nM
16. COc1c(C)c(-c2cc3[nH]c(=O)n(C4CCC(N5CC6(COC6)C5)CC4)c3cc2C(C)C)cn2ncnc12 (single isomer, unassigned) [Example 269, 1-(4-(2-oxa-6-azaspiro[3.3]heptan-6-yl)cyclohexyl)-6-isopropyl-5-(8-methoxy-7-methyl-[1,2,4]triazolo[1,5-a]pyridin-6-yl)-1,3-dihydro-2H-benzo[d]imidazol-2-one]  1.58 nM
17. COC1CN(C2CCC(n3c(=O)[nH]c4cc(-c5cn6ncnc6c(C)c5C)c(C(C)C)cc43)CC2)C1 (single isomer, unassigned) [Example 278, 5-(7,8-dimethyl-[1,2,4]triazolo[1,5-a]pyridin-6-yl)-6-isopropyl-1-(4-(3-methoxyazetidin-1-yl)cyclohexyl)-1,3-dihydro-2H-benzo[d]imidazol-2-one]  1.57 nM
18. COc1c(C)c(-c2cc3[nH]c(=O)n(C4CCC(N5CCC6(CC5)COC6)CC4)c3cc2C(C)C)cn2ncnc12 (single isomer, unassigned) [Example 268, 1-(4-(2-oxa-7-azaspiro[3.5]nonan-7-yl)cyclohexyl)-6-isopropyl-5-(8-methoxy-7-methyl-[1,2,4]triazolo[1,5-a]pyridin-6-yl)-1,3-dihydro-2H-benzo[d]imidazol-2-one]  1.08 nM
19. Cc1c(-c2cc3[nH]c(=O)n(C4CCC(N5CCCOCC5)CC4)c3cc2C(C)C)cn2ncnc2c1C (centres unmarked) [Example 271, 1-(4-(1,4-oxazepan-4-yl)cyclohexyl)-5-(7,8-dimethyl-[1,2,4]triazolo[1,5-a]pyridin-6-yl)-6-isopropyl-1,3-dihydro-2H-benzo[d]imidazol-2-one]  0.36 nM
20. COc1cc(-c2cc3[nH]c(=O)n(C4CCC(N5CCC(OC)C5)CC4)c3cc2C(C)C)cn2ncnc12 (centres unmarked) [Example 284, 6-isopropyl-5-(8-methoxy-[1,2,4]triazolo[1,5-a]pyridin-6-yl)-1-(4-(3-methoxypyrrolidin-1-yl)cyclohexyl)-1,3-dihydro-2H-benzo[d]imidazol-2-one]  0.18 nM
21. COc1cc(-c2cc3[nH]c(=O)n(C4CCC(N(C)CCC(F)(F)F)CC4)c3cc2C(C)C)cn2ncnc12 (single isomer, unassigned) [Example 248, 6-isopropyl-5-(8-methoxy-[1,2,4]triazolo[1,5-a]pyridin-6-yl)-1-(4-(methyl(3,3,3-trifluoropropyl)amino)cyclohexyl)-1,3-dihydro-2H-benzo[d]imidazol-2-one]  0.17 nM
22. COc1cc(-c2cc3[nH]c(=O)n(C4CCC(N5CCC(OC)C5)CC4)c3cc2C(C)C)cn2ncnc12 (centres unmarked) [Example 285, 6-isopropyl-5-(8-methoxy-[1,2,4]triazolo[1,5-a]pyridin-6-yl)-1-(4-(3-methoxypyrrolidin-1-yl)cyclohexyl)-1,3-dihydro-2H-benzo[d]imidazol-2-one]  0.13 nM
23. Cc1c(-c2cc3[nH]c(=O)n(C4CCC(N5CCC6(CC5)COC6)CC4)c3cc2C(C)C)cn2ncnc2c1C (single isomer, unassigned) [Example 283, 1-(4-(2-oxa-7-azaspiro[3.5]nonan-7-yl)cyclohexyl)-5-(7,8-dimethyl-[1,2,4]triazolo[1,5-a]pyridin-6-yl)-6-isopropyl-1,3-dihydro-2H-benzo[d]imidazol-2-one]  0.09 nM
